Here are results for two compounds from patent US20260174766A1, “COMBINATION OF MENIN INHIBITOR(S) AND IMMUNOPROTEASOME INHIBITOR(S) FOR TREATMENT OF LEUKEMIA” (Medizinische Hochschule Hannover, priority 2022, published 2026).

The test system of one experiment is MLLr cell lines. Kind of experiment: Cell growth (cell counting after trypan blue exclusion) of MLLr cell lines. Type of experiment: cell-based, human. The settings on record: 250-500 nM; MOLM-13, MV-4;11, ML-2, KOPN-8; FIG. 1H. On the procedure: MOLM-13, MONO-MAC-6, THP-1, KOPN-8, ML-2, MV-4;11, OCI-AML3, U-937, KASUMI-1, K-562, HL-60 and LAMA-84 cells were purchased from DSMZ (Braunschweig, Germany). Cas9-Blast cell lines are subclones of the respective cell lines and stably transduced with lentiCas9-Blast (Addgene plasmid #52962). Cells were cultured in RPMI 1640 medium (Thermo Fisher Scientific, Waltham, MA, USA) supplemented with 10-20% FBS (Thermo Fisher Scientific) in a humid atmosphere of 5% CO2 at 37° C. MV4;11 cells harboring Menin-inhibitor resistance mediating mutations of Menin were generated by CRISPR-Cas9 technology.
Cellular proliferation was assessed by cell counting after trypan blue exclusion. Apoptosis of cells was measured by flow cytometry using Annexin V/SYTOX® Blue staining following the manufacturer's instruction.

The test system of experiment [1] is primary human leukemia cells harboring an MLL-AF4 fusion. Kind of experiment: MLL-AF4 patient-derived xenograft model with in vivo treatment and limiting dilution assay. Also noted: species or system mouse. Particulars: ELDA; engraftment >1% hCD45+ in peripheral blood three months after transplantation; DMSO 1/247973. The source says:
NOD.Cg-Prkdc^scid Il2rg^tm1Wjl Tg(CMV-IL3, CSF2, KITLG) 1Eav/MloySzJ (NSGS), NOD.Cg-Prkdc^scid Il2rg^tm1Wjl/SzJ (NSG) or NOD.Cg-Prkdc^scid Il2rg^tm1Wjl/RJ (NXG) were obtained from The Jackson Laboratory (Bar Harbor, ME, USA). 8-12-weeks old adult mice (male and female) were irradiated with 2 Gy (single dose) before transplantation. 1×10^5 MOLM-13, ML-2 or MV-4; 11 cells transduced with either of two PSMB8/LMP7 shRNAs or non-targeting control; with a pLEX vector containing the sequence of BASP1 or an empty vector; or treated ex vivo with the indicated inhibitors were injected intravenously via the tail vein. For patient derived xenograft experiments (PDX) of human MLLr leukemia we used an improved model for human HSC transplantation and analysis, that has been developed from immune-deficient mouse strains containing Kit mutations: NOD.Cg-^KitW-41J Prkdc^scid Il2rg^tm1Wjl/WaskJ (NSGW41) (Cosgun et al., 2014). […] Human myeloid engraftment (hCD45+ CD13+) was analyzed by flow cytometry. […]
FIGS. 4J-4K show number of engrafted mice per dilution (engraftment is considered if the percentage of hCD45+ cells is >1% in peripheral blood three months after transplantation) is shown and leukemic stem cell (LSC) frequency calculated using the ELDA (Extreme Limiting Dilution Assay) software (reference). […]

For the compound `O=C(N[C@H](Cc1coc2ccccc12)B(O)O)[C@@H]1C[C@@H]2CC[C@H]1O2` [M3258, ((S)-2-(benzofuran-3-yl)-1-((1R,2R,4S)-7-oxabicyclo[2.2.1]heptane-2-carboxamido)ethyl)boronic acid], the “reduction of cell growth in MLL-rearranged human AML cell lines” value with MLLr cell lines is “recapitulated”.

As for `Cc1c(CN2CCC(Nc3ncnc4sc(CC(F)(F)F)cc34)CC2)ccc2c1cc(C#N)n2Cc1cn[nH]c1` [MI-503, 4-Methyl-1-(1H-pyrazol-4-ylmethyl)-5-[[4-[[6-(2,2,2-trifluoroethyl)thieno[2,3-d]pyrimidin-4-yl]amino]-1-piperidinyl]methyl]-1H-indole-2-carbonitrile], the LSC frequency in experiment [1] was 1/363914.
